# What was measured:
# [1] = compound: T1, CN1CC[C@H](c2c(O)cc(O)c3c(=O)cc(-c4ccccc4Cl)oc23)[C@H](O)C1 [Flavopiridol]; assay: GR value, 72 h; higher = faster growth (1 = untreated, <0 = killing);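 also: breast cancer and non-malignant breast epithelial lines, nine half-log doses, viable cells counted by Hoechst and LIVE/DEAD dye imaging versus time-zero plates and DMSO controls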
# [2] = compound: CN(C)C/C=C/C(=O)Nc1ccc(C(=O)Nc2cccc(Nc3ncc(Cl)c(-c4c[nH]c5ccccc45)n3)c2)cc1 [THZ1]; assay: as above
# [3] = compound: CN(C)C/C=C/C(=O)Nc1ccc(C(=O)N2CCC[C@@H](Nc3ncc(Cl)c(-c4c[nH]c5ccccc45)n3)C2)cc1 [THZ531]; assay: as above
# [4] = compound: CN(C)C(=O)c1cc2cnc(Nc3ccc(N4CCNCC4)cn3)nc2n1C1CCCC1 [LEE011/Ribociclib]; assay: as above
# [5] = compound: CCOc1cc2ncc(C#N)c(Nc3ccc(OCc4ccccn4)c(Cl)c3)c2cc1NC(=O)/C=C/CN(C)C [Neratinib/HKI272]; assay: as above
# [6] = compound: CC(=O)c1c(C)c2cnc(Nc3ccc(N4CCN(CCOCCOCCOCCNC(=O)COc5cccc6c5C(=O)N(C5CCC(=O)NC5=O)C6=O)CC4)cn3)nc2n(C2CCCC2)c1=O [BSJ-03-123]; assay: as above
# [7] = compound: CC(=O)c1c(C)c2cnc(Nc3ccc(N4CCNCC4)cn3)nc2n(C2CCCC2)c1=O; assay: as above
# [8] = compound: C=CC(=O)Nc1ccc(C(=O)Nc2[nH]nc3c2CN(C(=O)N[C@H](CN(C)C)c2ccccc2)C3(C)C)cc1 [YKL-5-124]; assay: as above
# [9] = compound: CCc1cnn2c(NCc3ccc[n+]([O-])c3)cc(N3CCCC[C@H]3CCO)nc12; assay: as above
# [10] = compound: CCN1CCN(Cc2ccc(Nc3ncc(F)c(-c4cc(F)c5nc(C)n(C(C)C)c5c4)n3)nc2)CC1; assay: as above
# [11] = compound: T1, Flavopiridol
# [12] = compound: CN(C)CC[C@H](CSc1ccccc1)Nc1ccc(S(=O)(=O)NC(=O)c2ccc(N3CCN(Cc4ccccc4-c4ccc(Cl)cc4)CC3)cc2)cc1[N+](=O)[O-] [ABT-737]
# [13] = compound: CO[C@@H](C)Cn1c(=O)n(C)c2cnc3ccc(-c4cncc(C(C)(C)O)c4)cc3c21
# [14] = compound: Cc1nc(-c2cn3c(n2)-c2ccc(-c4cnn(C(C)(C)C(N)=O)c4)cc2OCC3)n(C(C)C)n1 [Taselisib/GDC0032]
# [15] = compound: CN1CCN(CCOc2cc(OC3CCOCC3)c3c(Nc4c(Cl)ccc5c4OCO5)ncnc3c2)CC1 [Saracatinib/AZD0530]
# 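For GR50, 72 h in this document: breast cancer and non-malignant breast epithelial cell lines, Deep Dye Drop or Dye Drop imaging, nine half-log doses, GR normalized to time-zero plates and DMSO-only controls.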
cell line,measurement,setting,value
CAL51,GR value,[1]; 0.0001 µM,0.98 GR
same,GR value,[1]; 0.0003162 µM,0.944 GR
same,GR value,[1]; 0.001 µM,0.962 GR
same,GR value,[1]; 0.003162 µM,0.909 GR
same,GR value,[1]; 0.01 µM,0.842 GR
same,GR value,[1]; 0.03162 µM,0.887 GR
same,GR value,[1]; 0.1 µM,0.708 GR
same,GR value,[1]; 0.3162 µM,0.353 GR
same,GR value,[1]; 1 µM,-0.099 GR
same,GR value,[2]; 0.0001 µM,1.05 GR
same,GR value,[2]; 0.0003162 µM,0.971 GR
same,GR value,[2]; 0.001 µM,0.953 GR
same,GR value,[2]; 0.003162 µM,0.953 GR
same,GR value,[2]; 0.01 µM,0.938 GR
same,GR value,[2]; 0.03162 µM,0.882 GR
same,GR value,[2]; 0.1 µM,0.871 GR
same,GR value,[2]; 0.3162 µM,0.601 GR
same,GR value,[2]; 1 µM,0.0924 GR
same,GR value,[3]; 0.0001 µM,0.973 GR
same,GR value,[3]; 0.0003162 µM,0.962 GR
same,GR value,[3]; 0.001 µM,0.912 GR
same,GR value,[3]; 0.003162 µM,0.96 GR
same,GR value,[3]; 0.01 µM,1.01 GR
same,GR value,[3]; 0.03162 µM,0.937 GR
same,GR value,[3]; 0.1 µM,0.904 GR
same,GR value,[3]; 0.3162 µM,0.786 GR
same,GR value,[3]; 1 µM,0.543 GR
same,GR value,[4]; 0.001 µM,0.899 GR
same,GR value,[4]; 0.003162 µM,0.874 GR
same,GR value,[4]; 0.01 µM,0.808 GR
same,GR value,[4]; 0.03162 µM,0.772 GR
same,GR value,[4]; 0.1 µM,0.693 GR
same,GR value,[4]; 0.3162 µM,0.658 GR
same,GR value,[4]; 1 µM,0.631 GR
same,GR value,[4]; 3.162 µM,0.55 GR
same,GR value,[4]; 10 µM,0.396 GR
same,GR value,[5]; 0.0003162 µM,0.983 GR
same,GR value,[5]; 0.001 µM,1 GR
same,GR value,[5]; 0.003162 µM,0.938 GR
same,GR value,[5]; 0.01 µM,1.01 GR
same,GR value,[5]; 0.03162 µM,1 GR
same,GR value,[5]; 0.1 µM,0.975 GR
same,GR value,[5]; 0.3162 µM,0.94 GR
same,GR value,[5]; 1 µM,0.833 GR
same,GR value,[5]; 3.162 µM,0.293 GR
same,GR value,[6]; 0.001 µM,0.894 GR
same,GR value,[6]; 0.003162 µM,0.912 GR
same,GR value,[6]; 0.01 µM,0.915 GR
same,GR value,[6]; 0.03162 µM,0.898 GR
same,GR value,[6]; 0.1 µM,0.895 GR
same,GR value,[6]; 0.3162 µM,0.818 GR
same,GR value,[6]; 1 µM,0.763 GR
same,GR value,[6]; 3.162 µM,0.76 GR
same,GR value,[6]; 10 µM,0.121 GR
same,GR value,[7]; 0.0003162 µM,0.968 GR
same,GR value,[7]; 0.001 µM,1.02 GR
same,GR value,[7]; 0.003162 µM,0.982 GR
same,GR value,[7]; 0.01 µM,0.911 GR
same,GR value,[7]; 0.03162 µM,0.783 GR
same,GR value,[7]; 0.1 µM,0.646 GR
same,GR value,[7]; 0.3162 µM,0.516 GR
same,GR value,[7]; 1 µM,0.446 GR
same,GR value,[7]; 3.162 µM,0.354 GR
same,GR value,[8]; 0.001 µM,0.748 GR
same,GR value,[8]; 0.003162 µM,0.59 GR
same,GR value,[8]; 0.01 µM,0.391 GR
same,GR value,[8]; 0.03162 µM,0.327 GR
same,GR value,[8]; 0.1 µM,0.314 GR
same,GR value,[8]; 0.3162 µM,0.236 GR
same,GR value,[8]; 1 µM,0.216 GR
same,GR value,[8]; 3.162 µM,0.165 GR
same,GR value,[8]; 10 µM,-0.0011 GR
same,GR value,[9]; 0.0001 µM,0.999 GR
same,GR value,[9]; 0.0003162 µM,0.954 GR
same,GR value,[9]; 0.001 µM,1.03 GR
same,GR value,[9]; 0.003162 µM,0.974 GR
same,GR value,[9]; 0.01 µM,0.831 GR
same,GR value,[9]; 0.03162 µM,-0.218 GR
same,GR value,[9]; 0.1 µM,-0.356 GR
same,GR value,[9]; 0.3162 µM,-0.355 GR
same,GR value,[9]; 1 µM,-0.341 GR
same,GR value,[10]; 0.001 µM,0.966 GR
same,GR value,[10]; 0.003162 µM,0.882 GR
same,GR value,[10]; 0.01 µM,0.752 GR
same,GR value,[10]; 0.03162 µM,0.569 GR
same,GR value,[10]; 0.1 µM,0.501 GR
same,GR value,[10]; 0.3162 µM,0.365 GR
same,GR value,[10]; 1 µM,0.207 GR
same,GR value,[10]; 3.162 µM,-0.124 GR
same,GR value,[10]; 10 µM,-0.46 GR
same,"GR50, 72 h",[11],0.2 µM
same,"GR50, 72 h",[12],> 10 µM
same,"GR50, 72 h",[13],0.0113 µM
same,"GR50, 72 h",[14],0.134 µM
same,"GR50, 72 h",[15],1.85 µM

# Reference: the supplement of paper PMC9663587
